Laboratory results: patent publication US10709745B2, “Tropic cell based virotherapy for the treatment of cancer” (priority 2013, dated 2020)
Where two headings read alike, the source gives them in different places.

How the values were obtained:
Test in all cases: Glioma cell viability (MTT) under XRT-TMZ with or without CRAd-S-pk7
[1] = tested on: GBM39; assay type: cell-based; conditions: Homo sapiens, treated with XRT (2 Gy) simultaneously
Method: FIGS. 44A and 44B show the optimization of combination therapy in vitro according to one embodiment. (FIG. 44A): Cytotoxicity of U251 and U87 glioma cell lines and GBM39 patient-derived cell line treated with Rx-OV or OV-Rx. Left: The percentage of viability of glioma cells measured by 3-(4,5-dimethylthiazol-2-yl)-2,5-diphenyltetrazolium bromide 96 hours after treatment. Right: Representative light microscope pictures of U87 glioma cell viability (magnification, ×10). (FIG. 44B): Percentage of apoptotic GBM43 cells at 48 hours after treatment with Rx-OV or OV-Rx treatment protocols as measured by the expression of active caspase-3-positive tumor cells by FACS (bottom). […]
A green fluorescent protein (GFP) expressing HB1.F3-CD cell line was generated as described elsewhere (Ahmed et al. 2011a). […] Following lysate preparation, the mean fluorescence intensity (MFI) was estimated for each group of cocultured cells using the GloMax 20/20 Luminometer (Promega). […] U251, U87, and GBM39 cell viability was determined using 3-(4,5-dimethylthiazol-2-yl)-2,5-diphenyltetrazolium bromide (MTT) cell proliferation kit (Roche Diagnostics, Mannheim, Germany, http://www.roche-applied-science.com). The viability was subsequently determined by MTT as described by the manufacturer's protocol. Cell viability was expressed as the percentage of cells alive compared with the dimethyl sulfoxide-treated control. […]

[2] = tested on: U251; assay type: cell-based, human; conditions: for IC50: Homo sapiens, U-251
Method: (§1) FIGS. 42A and 42B illustrate antitumor effects of CRAd-Survivin-pk7 (CRAd-S-pk7)-loaded NSCs and their combination with XRT-TMZ against glioma cell lines in vitro according to one embodiment. (FIG. 42A): Cytotoxicity of patient-derived GBM43 tumor cells 96 hours after coculture with CRAd-S-pk7-loaded NSCs at the NSC to GBM43 cell ratios of 1:0, 1:2, 1:5, 1:10, or 1:50. Top: Representative light microscope pictures of GBM43 viability. Bottom: Mean luciferase intensity values represented as the percentages of viable glioma cells compared with control. (FIG. 42B): U251 and U87 glioma cell viability measured by 3-(4,5-dimethylthiazol-2-yl)-2,5-diphenyltetrazolium bromide at 96 hours after treatment. The addition of CRAd-S-pk7 (50 infectious units) to conventional XRT-TMZ therapy reduced the percentage of glioma cell viability in both tested cell lines. […] Abbreviations: NSC, neural stem cell; OV, oncolytic virus; TMZ, temozolomide; XRT, radiation therapy.
(§2) FIGS. 44A and 44B show the optimization of combination therapy in vitro according to one embodiment. (FIG. 44A): Cytotoxicity of U251 and U87 glioma cell lines and GBM39 patient-derived cell line treated with Rx-OV or OV-Rx. Left: The percentage of viability of glioma cells measured by 3-(4,5-dimethylthiazol-2-yl)-2,5-diphenyltetrazolium bromide 96 hours after treatment. Right: Representative light microscope pictures of U87 glioma cell viability (magnification, ×10). (FIG. 44B): Percentage of apoptotic GBM43 cells at 48 hours after treatment with Rx-OV or OV-Rx treatment protocols as measured by the expression of active caspase-3-positive tumor cells by FACS (bottom). Top: Representative FACS plots. *, p<0.05; **, p<0.01; ***, p<0.001. Abbreviations: DMSO, dimethyl sulfoxide; OV-Rx, ionizing radiation-temozolomide therapy 24 hours after oncolytic virus; PE, phycoerythrin; Rx-OV, oncolytic virus 24 hours after ionizing radiation-temozolomide therapy.
(§3) For all studies, the cells and mice received XRT in accordance with the University of Chicago's radiation safety guidelines and protocols. All cells received a single dose of 2 Gy XRT. For animal studies, 10 Gy fractioned dose radiotherapy (2 Gy for 5 consecutive days) was used. The animals were irradiated with a lead cover shielding their entire body, with only their heads exposed. […] For in vivo studies, the mice received 2.5, 5, 10, or 30 mg/kg TMZ via intraperitoneal injection.
(§4) A green fluorescent protein (GFP) expressing HB1.F3-CD cell line was generated as described elsewhere (Ahmed et al. 2011a). GBM43-Fluc cells were plated in 12-well plates and cocultured with HB1.F3-CDGFP cells loaded with CRAd-S-pk7 in the following NSC to glioma cell ratios: 1:0, 1:2, 1:5, 1:10, and 1:50. After 96 hours, the cells were collected, lysed with reporter lysis buffer (Promega, Madison, Wis., http://www.promega.com), and added to luciferase assay reagent (Promega) according to the manufacturer's protocol. Following lysate preparation, the mean fluorescence intensity (MFI) was estimated for each group of cocultured cells using the GloMax 20/20 Luminometer (Promega). The mean luciferase intensity values were represented as the percentage of cells viable compared with mock cells. U251, U87, and GBM39 cell viability was determined using 3-(4,5-dimethylthiazol-2-yl)-2,5-diphenyltetrazolium bromide (MTT) cell proliferation kit (Roche Diagnostics, Mannheim, Germany, http://www.roche-applied-science.com). The viability was subsequently determined by MTT as described by the manufacturer's protocol. Cell viability was expressed as the percentage of cells alive compared with the dimethyl sulfoxide-treated control.
(§5) Next, it was tested whether CRAd-S-pk7 could enhance the therapeutic efficacy of conventional XRT-TMZ. U251 or U87 glioma cells were treated with conventional therapy consisting of 2 Gy XRT and varying concentrations of TMZ (0-1×10^3 µM) or conventional treatment plus 50 IU of CRAd-S-pk7, and cell viability was measured by MTT at 96 hours. […]

[3] = tested on: U87; assay type: cell-based, human; conditions: for IC50: Homo sapiens, U-87 MG
Method: as §1, §2, §3, §4, §5

[4] = 2 Gy XRT plus 50 IU of CRAd-S-pk7, MTT 96 hours, read-out: IC50 values for TMZ
[5] = treated with XRT (2 Gy) simultaneously, read-out: IC50

**Q.** With `Cn1nnc2c(C(N)=O)ncn2c1=O` [TMZ, temozolomide] as the compound, how does the IC50 [1] read?
**A.** The IC50 was 50 µM.

**Q.** And the IC50 [2, 4]?
**A.** The IC50 was 13 µM.

**Q.** What about the IC50 [2, 5] of the same compound?
**A.** The IC50 was 44 µM.

**Q.** And the “decrease of TMZ IC50 when OV was added” value ([2]; XRT-TMZ)?
**A.** The value was 31 µM.

**Q.** And the IC50 [3, 4]?
**A.** The IC50 was 10 µM.

**Q.** And the IC50 [3, 5]?
**A.** The IC50 was 25 µM.

**Q.** And the “decrease of TMZ IC50 when OV was added” value ([3]; XRT-TMZ)?
**A.** Its value is 15 µM.
